The melting point is the temperature of the solid-liquid transition. Take `Cn1c(C(F)(F)F)cc(=O)n(-c2cc(Oc3nnc(C(F)(F)F)s3)c(Cl)cc2Cl)c1=O` [Compound No 84, 3-(2,4-dichloro-5-{[5-(trifluoromethyl)-1,3,4-thiadiazol-2-yl]oxy}phenyl)-1-methyl-6-(trifluoromethyl)-2,4(1H,3H)-pyrimidinedione]: the melting point is 90 °C.
To `Cn1c(C(F)(F)F)cc(=O)n(-c2cc(-c3nc4ccccc4o3)c(Cl)cc2F)c1=O` [Compound No 122, 3-[5-(1,3-benzoxazol-2-yl)-4-chloro-2-fluorophenyl]-1-methyl-6-(trifluoromethyl)-2,4(1H,3H)-pyrimidinedione] belongs 178 °C.
To `C=CCn1nnc(-c2cc(-n3c(=O)cc(C(F)(F)F)n(C)c3=O)ccc2Cl)n1` [Compound No 105, 3-[3-(2-allyl-2H-tetrazol-5-yl)-4-chlorophenyl]-1-methyl-6-(trifluoromethyl)-2,4(1H,3H)-pyrimidinedione] belongs 116 °C; to `Cn1c(C(F)(F)F)cc(=O)n(-c2ccc(Cl)c(-c3nnn(C(C)(C)C)n3)c2)c1=O` [Compound No 118, 3-[3-(2-tert-butyl-2H-tetrazol-5-yl)-4-chlorophenyl]-1-methyl-6-(trifluoromethyl)-2,4(1H,3H)-pyrimidinedione], 154 °C.
To `Cc1ccc2nc(-c3cc(-n4c(=O)cc(C(F)(F)F)n(C)c4=O)c(Cl)cc3Cl)oc2c1` [Compound No 124, 3-[2,4-dichloro-5-(6-methyl-1,3-benzoxazol-2-yl)phenyl]-1-methyl-6-(trifluoromethyl) 2,4(1H,3H)-pyrimidinedione] belongs 200 °C.
With `COCn1nnnc1-c1cc(-n2c(=O)cc(C(F)(F)F)n(C)c2=O)ccc1Cl` [Compound No 102, 3-{4-chloro-3-[1-(methoxymethyl)-1H-tetrazol-5-yl]phenyl}-1-methyl-6-(trifluoromethyl)-2,4(1H,3H)-pyrimidinedione], the melting point came out at 182 °C.
In turn, `CCOCn1nnnc1-c1cc(-n2c(=O)cc(C(F)(F)F)n(C)c2=O)ccc1Cl` [Compound No 104, 3-{4-chloro-3-[1-(ethoxymethyl)-1H-tetrazol-5-yl]phenyl}-1-methyl-6-(trifluoromethyl)-2,4(1H,3H)-pyrimidinedione] came in with a melting point of 157 °C.
The compound `CCOC(=O)c1csc(-c2cc(-n3c(=O)cc(C(F)(F)F)n(C)c3=O)ccc2Cl)n1` [Compound No 156, ethyl 2-{2-chloro-5-[1,2,3,6-tetrahydro-3-methyl-2,6-dioxo-4-(trifluoromethyl)pyrimidin-1-yl]phenyl}-1,3-thiazole-4-carboxylate] came in with a melting point of 197 °C.
Compound `CCOC(=O)c1sc(-c2cc(-n3c(=O)cc(C(F)(F)F)n(C)c3=O)ccc2Cl)nc1C` [Compound No 131, ethyl 2-{2-chloro-5-[1,2,3,6-tetrahydro-3-methyl-2,6-dioxo-4-(trifluoromethyl)pyrimidin-1-yl]phenyl}-4-methyl-1,3-thiazole-5-carboxylate] gave a melting point of 200 °C.
As for `CCOC(=O)/C=C(\COc1cc(-n2c(=O)cc(C(F)(F)F)n(C)c2=O)c(F)cc1Cl)OC` [Compound No 100, ethyl (2E)-4-{2-chloro-4-fluoro-5-[1,2,3,6-tetrahydro-3-methyl-2,6-dioxo-4-(trifluoromethyl)pyrimidin-1-yl]phenoxy}-3-methoxybut-2-enoate], the melting point was found to be 78 °C.
With `C=CCn1nnnc1-c1cc(-n2c(=O)cc(C(F)(F)F)n(C)c2=O)ccc1Cl` [Compound No 106, 3-[3-(1-allyl-1H-tetrazol-5-yl)-4-chlorophenyl]-1-methyl-6-(trifluoromethyl)-2,4(1H,3H)-pyrimidinedione], the melting point turned out to be 160 °C.

Values taken from US7754880B2, “Uracils having a herbicidal activity” (Isagro Ricerca S.r.l., priority 2002, dated 2010).
